Values of other authors, collected in patent EP0266006A2, “Novel hypotensive diuretic peptides” (SHIONOGI SEIYAKU KABUSHIKI KAISHA trading under the name of …, priority 1986, dated 1988).
Where no end group is shown, it is not given here.

Conditions: said to be so, unlike α type or γ type

## β-hANP: antiparallel dimer of α-hANP (SLRRSSCFGGRMDRIGAQSGLGCNSFRY; ends and bridges not checked; also: antiparallel dimer of α-hANP; UniProt P01160 124-151, looked up)
  diuretic action (duration): persistent
